# Data from PMC8776063, “Aurora Kinase A Is Involved in Controlling the Localization of Aquaporin-2 in Renal Principal Cells” (International Journal of Molecular Sciences, 2022).
# Read-outs that look alike come from different tables or passages of the source.
# How the values were obtained:
# [1] = target: T1, AAK1 (Homo sapiens, UniProt Q2M2I8); assay: Thermal shift assay; format: binding; conditions: read-out: ΔTm AAK1
# T1 construct: purchased in-house thermal shift (DSF) kinase panel (SGC Frankfurt); Promega NanoBRET for AURKA/B/C
# T1 sequence (Q2M2I8 27-365): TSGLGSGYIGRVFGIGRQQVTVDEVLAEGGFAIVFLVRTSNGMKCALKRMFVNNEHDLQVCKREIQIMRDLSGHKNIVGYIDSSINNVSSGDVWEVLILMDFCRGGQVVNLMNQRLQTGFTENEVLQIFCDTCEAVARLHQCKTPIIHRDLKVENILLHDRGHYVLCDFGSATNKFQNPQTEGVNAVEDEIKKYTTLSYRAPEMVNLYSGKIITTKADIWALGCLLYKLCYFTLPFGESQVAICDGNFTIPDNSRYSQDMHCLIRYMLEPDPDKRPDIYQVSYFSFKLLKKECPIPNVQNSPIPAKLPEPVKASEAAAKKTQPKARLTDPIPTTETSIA
# [2] = target: T2, CAMK1G (Homo sapiens, UniProt Q96NX5); assay: Thermal shift assay; format: binding; conditions: read-out: ΔTm CAMK1G
# T2 construct: purchased in-house thermal shift (DSF) kinase panel (SGC Frankfurt); Promega NanoBRET for AURKA/B/C
# T2 sequence (Q96NX5 23-277): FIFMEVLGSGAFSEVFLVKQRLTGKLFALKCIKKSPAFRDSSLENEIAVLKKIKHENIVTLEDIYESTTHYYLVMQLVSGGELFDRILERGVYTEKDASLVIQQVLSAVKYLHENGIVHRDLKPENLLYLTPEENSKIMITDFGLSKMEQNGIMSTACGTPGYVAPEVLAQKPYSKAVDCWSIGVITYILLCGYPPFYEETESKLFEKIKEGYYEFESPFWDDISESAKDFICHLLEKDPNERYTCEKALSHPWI
# [3] = target: T3, CLK1 (Homo sapiens, UniProt P49759); assay: Thermal shift assay; format: binding; conditions: read-out: ΔTm CLK1
# T3 construct: purchased in-house thermal shift (DSF) kinase panel (SGC Frankfurt); Promega NanoBRET for AURKA/B/C
# T3 sequence (P49759 148-484): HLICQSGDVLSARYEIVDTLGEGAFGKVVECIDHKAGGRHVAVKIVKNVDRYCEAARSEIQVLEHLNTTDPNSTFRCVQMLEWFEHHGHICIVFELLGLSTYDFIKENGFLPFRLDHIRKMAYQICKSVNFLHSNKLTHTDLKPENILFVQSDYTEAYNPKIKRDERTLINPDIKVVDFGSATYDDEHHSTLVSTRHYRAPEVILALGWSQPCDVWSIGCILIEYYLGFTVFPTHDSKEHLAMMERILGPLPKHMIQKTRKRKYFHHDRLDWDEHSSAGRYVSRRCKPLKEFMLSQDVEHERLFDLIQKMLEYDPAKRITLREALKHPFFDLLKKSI
# [4] = target: T4, CSNK2A1 (Homo sapiens, UniProt P68400); assay: Thermal shift assay; format: binding; conditions: read-out: ΔTm CSNK2A1
# T4 construct: purchased in-house thermal shift (DSF) kinase panel (SGC Frankfurt); Promega NanoBRET for AURKA/B/C
# T4 sequence (P68400 1-337): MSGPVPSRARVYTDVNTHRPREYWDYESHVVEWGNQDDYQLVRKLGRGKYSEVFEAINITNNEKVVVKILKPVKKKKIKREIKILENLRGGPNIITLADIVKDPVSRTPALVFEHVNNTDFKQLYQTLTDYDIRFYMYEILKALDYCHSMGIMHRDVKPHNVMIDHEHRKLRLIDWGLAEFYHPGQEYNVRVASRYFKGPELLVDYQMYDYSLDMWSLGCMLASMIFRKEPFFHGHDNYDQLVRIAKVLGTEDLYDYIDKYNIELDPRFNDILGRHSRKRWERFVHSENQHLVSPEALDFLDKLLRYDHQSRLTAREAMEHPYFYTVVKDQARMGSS
# [5] = target: T5, GAK (Homo sapiens, UniProt O14976); assay: Thermal shift assay; format: binding; conditions: read-out: ΔTm GAK
# T5 construct: purchased in-house thermal shift (DSF) kinase panel (SGC Frankfurt); Promega NanoBRET for AURKA/B/C
# T5 sequence (O14976 14-351): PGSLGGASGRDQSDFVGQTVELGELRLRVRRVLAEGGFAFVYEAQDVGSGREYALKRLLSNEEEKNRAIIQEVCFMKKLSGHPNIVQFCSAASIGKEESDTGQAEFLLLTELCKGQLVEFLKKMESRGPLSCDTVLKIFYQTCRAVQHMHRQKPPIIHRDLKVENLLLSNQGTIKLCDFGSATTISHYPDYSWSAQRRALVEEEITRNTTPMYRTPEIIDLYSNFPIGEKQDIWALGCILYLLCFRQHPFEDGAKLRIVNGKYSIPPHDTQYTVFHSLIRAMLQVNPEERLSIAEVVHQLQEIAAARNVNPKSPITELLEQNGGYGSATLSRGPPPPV
# [6] = target: T6, GSK3B (Homo sapiens, UniProt P49841); assay: Thermal shift assay; format: binding; conditions: read-out: ΔTm GSK3B
# T6 construct: purchased in-house thermal shift (DSF) kinase panel (SGC Frankfurt); Promega NanoBRET for AURKA/B/C
# T6 sequence (P49841 35-386): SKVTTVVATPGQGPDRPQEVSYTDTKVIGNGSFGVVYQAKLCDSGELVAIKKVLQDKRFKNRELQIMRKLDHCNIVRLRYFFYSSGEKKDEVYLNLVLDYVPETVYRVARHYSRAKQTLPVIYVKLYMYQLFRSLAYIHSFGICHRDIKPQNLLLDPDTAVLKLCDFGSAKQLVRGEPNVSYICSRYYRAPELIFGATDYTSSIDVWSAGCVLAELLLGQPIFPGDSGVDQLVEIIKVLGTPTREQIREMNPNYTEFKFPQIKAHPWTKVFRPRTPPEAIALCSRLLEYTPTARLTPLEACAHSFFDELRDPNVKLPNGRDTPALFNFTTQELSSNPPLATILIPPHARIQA
# [7] = target: T7, MAP2K1 (Homo sapiens, UniProt Q02750); assay: Thermal shift assay; format: binding; conditions: read-out: ΔTm MAP2K1
# T7 construct: purchased in-house thermal shift (DSF) kinase panel (SGC Frankfurt); Promega NanoBRET for AURKA/B/C
# T7 sequence (Q02750 68-361): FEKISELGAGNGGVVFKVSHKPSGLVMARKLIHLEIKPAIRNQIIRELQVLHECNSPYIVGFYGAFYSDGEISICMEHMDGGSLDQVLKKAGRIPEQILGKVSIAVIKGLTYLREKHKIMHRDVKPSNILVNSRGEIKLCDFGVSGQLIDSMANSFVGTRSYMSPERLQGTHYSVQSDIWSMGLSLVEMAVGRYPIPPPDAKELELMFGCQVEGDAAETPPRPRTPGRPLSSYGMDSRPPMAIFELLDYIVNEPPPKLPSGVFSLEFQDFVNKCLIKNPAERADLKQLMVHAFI
# [8] = target: T8, MAP2K6 (Homo sapiens, UniProt P52564); assay: Thermal shift assay; format: binding; conditions: read-out: ΔTm MAP2K6
# T8 construct: purchased in-house thermal shift (DSF) kinase panel (SGC Frankfurt); Promega NanoBRET for AURKA/B/C
# T8 sequence (P52564 47-334): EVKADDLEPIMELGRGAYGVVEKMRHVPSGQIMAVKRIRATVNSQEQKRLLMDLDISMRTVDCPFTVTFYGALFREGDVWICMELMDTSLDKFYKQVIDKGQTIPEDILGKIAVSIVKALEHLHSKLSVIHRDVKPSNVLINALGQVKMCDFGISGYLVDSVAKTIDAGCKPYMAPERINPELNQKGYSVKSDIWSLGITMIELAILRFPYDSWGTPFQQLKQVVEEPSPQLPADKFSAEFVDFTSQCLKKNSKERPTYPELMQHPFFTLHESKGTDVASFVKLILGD
# [9] = target: T9, MAPK8 (Homo sapiens, UniProt P45983); assay: Thermal shift assay; format: binding; conditions: read-out: ΔTm MAPK8
# T9 construct: purchased in-house thermal shift (DSF) kinase panel (SGC Frankfurt); Promega NanoBRET for AURKA/B/C
# T9 sequence (P45983 1-364): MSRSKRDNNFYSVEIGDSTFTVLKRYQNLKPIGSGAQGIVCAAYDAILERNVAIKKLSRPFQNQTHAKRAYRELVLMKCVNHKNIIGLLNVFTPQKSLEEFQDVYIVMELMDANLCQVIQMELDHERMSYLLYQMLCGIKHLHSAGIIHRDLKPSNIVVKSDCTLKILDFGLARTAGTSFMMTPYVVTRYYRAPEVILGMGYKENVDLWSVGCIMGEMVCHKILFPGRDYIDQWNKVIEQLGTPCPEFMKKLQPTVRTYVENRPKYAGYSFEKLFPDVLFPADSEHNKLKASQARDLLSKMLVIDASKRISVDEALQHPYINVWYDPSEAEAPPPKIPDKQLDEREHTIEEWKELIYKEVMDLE
# [10] = target: T10, MAPK9 (Homo sapiens, UniProt P45984); assay: Thermal shift assay; format: binding; conditions: read-out: ΔTm MAPK9
# T10 construct: purchased in-house thermal shift (DSF) kinase panel (SGC Frankfurt); Promega NanoBRET for AURKA/B/C
# T10 sequence (P45984 whole entry): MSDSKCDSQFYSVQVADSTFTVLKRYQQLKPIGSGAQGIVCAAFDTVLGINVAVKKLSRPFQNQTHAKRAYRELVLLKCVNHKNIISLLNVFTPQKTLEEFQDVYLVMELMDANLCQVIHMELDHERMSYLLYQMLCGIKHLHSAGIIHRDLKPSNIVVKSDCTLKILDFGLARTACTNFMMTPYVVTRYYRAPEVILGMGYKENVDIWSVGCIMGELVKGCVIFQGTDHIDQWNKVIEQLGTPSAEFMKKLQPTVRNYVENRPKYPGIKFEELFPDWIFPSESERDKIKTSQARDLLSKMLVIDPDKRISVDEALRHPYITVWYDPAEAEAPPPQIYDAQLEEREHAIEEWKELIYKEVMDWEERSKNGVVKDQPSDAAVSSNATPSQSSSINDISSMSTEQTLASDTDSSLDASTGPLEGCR
# [11] = target: T11, PAK1 (Homo sapiens, UniProt Q13153); assay: Thermal shift assay; format: binding; conditions: read-out: ΔTm PAK1
# T11 construct: purchased in-house thermal shift (DSF) kinase panel (SGC Frankfurt); Promega NanoBRET for AURKA/B/C
# T11 sequence (Q13153 249-545): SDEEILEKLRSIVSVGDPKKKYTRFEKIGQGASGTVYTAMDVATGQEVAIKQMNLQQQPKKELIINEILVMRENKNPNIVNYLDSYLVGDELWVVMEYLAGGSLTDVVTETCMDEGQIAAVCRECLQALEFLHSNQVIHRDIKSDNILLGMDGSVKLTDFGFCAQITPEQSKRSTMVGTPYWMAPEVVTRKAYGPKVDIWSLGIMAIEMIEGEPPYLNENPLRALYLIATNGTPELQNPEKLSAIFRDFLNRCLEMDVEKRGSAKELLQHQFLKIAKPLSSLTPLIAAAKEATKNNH
# [12] = target: T12, STK17A (Homo sapiens, UniProt Q9UEE5); assay: Thermal shift assay; format: binding; conditions: read-out: ΔTm STK17A
# T12 construct: purchased in-house thermal shift (DSF) kinase panel (SGC Frankfurt); Promega NanoBRET for AURKA/B/C
# T12 sequence (Q9UEE5 61-321): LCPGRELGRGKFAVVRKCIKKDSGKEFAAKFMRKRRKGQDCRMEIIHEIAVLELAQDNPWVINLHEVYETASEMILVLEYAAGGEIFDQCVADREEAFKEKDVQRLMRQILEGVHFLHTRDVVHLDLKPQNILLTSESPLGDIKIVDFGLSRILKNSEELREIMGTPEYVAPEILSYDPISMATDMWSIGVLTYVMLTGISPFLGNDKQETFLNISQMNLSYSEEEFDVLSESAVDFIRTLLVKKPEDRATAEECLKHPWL
# [13] = target: T13, TTK (Homo sapiens, UniProt P33981); assay: Thermal shift assay; format: binding; conditions: read-out: ΔTm TTK
# T13 construct: purchased in-house thermal shift (DSF) kinase panel (SGC Frankfurt); Promega NanoBRET for AURKA/B/C
# T13 sequence (P33981 519-808): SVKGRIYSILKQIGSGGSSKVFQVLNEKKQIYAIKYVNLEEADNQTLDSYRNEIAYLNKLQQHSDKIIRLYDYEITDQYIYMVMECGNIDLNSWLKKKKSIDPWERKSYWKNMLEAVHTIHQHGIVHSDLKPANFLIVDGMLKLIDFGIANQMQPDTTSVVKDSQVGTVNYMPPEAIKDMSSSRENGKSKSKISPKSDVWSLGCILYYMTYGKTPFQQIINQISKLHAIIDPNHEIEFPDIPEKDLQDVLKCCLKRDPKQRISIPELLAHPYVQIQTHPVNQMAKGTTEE
# [14] = target: T14, VRK1 (Homo sapiens, UniProt Q99986); assay: Thermal shift assay; format: binding; conditions: read-out: ΔTm VRK1
# T14 construct: purchased in-house thermal shift (DSF) kinase panel (SGC Frankfurt); Promega NanoBRET for AURKA/B/C
# T14 sequence (Q99986 1-396): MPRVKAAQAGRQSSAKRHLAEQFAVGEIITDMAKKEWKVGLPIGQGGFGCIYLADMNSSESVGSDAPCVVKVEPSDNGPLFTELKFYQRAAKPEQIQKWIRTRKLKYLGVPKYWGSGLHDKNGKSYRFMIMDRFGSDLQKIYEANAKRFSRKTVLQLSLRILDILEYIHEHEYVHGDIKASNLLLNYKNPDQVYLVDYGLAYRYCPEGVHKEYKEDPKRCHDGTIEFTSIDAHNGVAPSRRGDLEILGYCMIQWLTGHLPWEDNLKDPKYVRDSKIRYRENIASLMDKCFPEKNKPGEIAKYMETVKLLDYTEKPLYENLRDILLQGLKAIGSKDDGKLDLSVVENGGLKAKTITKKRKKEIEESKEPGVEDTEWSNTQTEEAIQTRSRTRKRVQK
# [15] = system: MCD4 cells; assay: F-actin stress fiber staining (phalloidin); format: cell-based, mouse; conditions: compound 30 µM, 1 h
# [16] = system: primary IMCD cells; assay: F-actin stress fiber staining (phalloidin); format: cell-based, rat; conditions: compound 20 µM, 1 h
# [17] = system: MCD4 cells; assay: AQP2 redistribution, immunofluorescence microscopy; conditions: forskolin 30 µM, 30 min; for inhibition of the forskolin-induced redistribution of AQP2 to the plasma membrane: compound 30 µM, 1 h (Aurora-A inhibitor I 1-30 µM)
SMILES,effect on actin stress fibers [15],effect on actin stress fibers [16],inhibition of the forskolin-induced redistribution of AQP2 to the plasma membrane [17],"ΔTm at 10 µM ([1]; compound 10 µM, n = 3) [°C]","ΔTm at 10 µM ([2]; compound 10 µM, n = 3) [°C]","ΔTm at 10 µM ([3]; compound 10 µM, n = 3) [°C]","ΔTm at 10 µM ([4]; compound 10 µM, n = 3) [°C]","ΔTm at 10 µM ([5]; compound 10 µM, n = 3) [°C]","ΔTm at 10 µM ([6]; compound 10 µM, n = 3) [°C]","ΔTm at 10 µM ([7]; compound 10 µM, n = 3) [°C]","ΔTm at 10 µM ([8]; compound 10 µM, n = 3) [°C]","ΔTm at 10 µM ([9]; compound 10 µM, n = 3) [°C]","ΔTm at 10 µM ([10]; compound 10 µM, n = 3) [°C]","ΔTm at 10 µM ([11]; compound 10 µM, n = 3) [°C]","ΔTm at 10 µM ([12]; compound 10 µM, n = 3) [°C]","ΔTm at 10 µM ([13]; compound 10 µM, n = 3) [°C]","ΔTm at 10 µM ([14]; compound 10 µM, n = 3) [°C]",other results
"CCN1CCN(C(=O)Cc2ccc(Nc3ncc(F)c(Nc4ccc(C(=O)Nc5ccccc5Cl)cc4)n3)cc2)CC1 [Aurora-A inhibitor I, reference compound]",depolymerization of actin stress fibers,depolymerization of actin stress fibers,inhibits,–,–,–,–,–,–,–,–,–,–,–,–,–,–,"ΔTm at 10 µM [1]: 2.3 °C; ΔTm at 10 µM [2]: 1.1 °C; ΔTm at 10 µM [3]: 1.5 °C; ΔTm at 10 µM [4]: 1.1 °C; ΔTm at 10 µM [5]: 5 °C; ΔTm at 10 µM [6]: 3.1 °C; ΔTm at 10 µM [7]: 0.2 °C; ΔTm at 10 µM [8]: 0.6 °C; ΔTm at 10 µM [9]: 3.7 °C; ΔTm at 10 µM [10]: 2.9 °C; ΔTm at 10 µM [11]: 0.5 °C; ΔTm at 10 µM [12]: 1.9 °C; ΔTm at 10 µM [13]: 1.9 °C; ΔTm at 10 µM [14]: 0.4 °C; effective concentration for inhibition of AQP2 redistribution ([17]; 1, 10 or 30 µM, 1 h): greater than 1 µM"
CCN1CCN(C(=O)Cc2ccc(Nc3ncc(F)c(Nc4ccc(C(=O)Nc5ccccc5)cc4)n3)cc2)CC1 [ERJ2-11],promoted or maintained the formation of actin stress fibers,promoted or maintained the formation of actin stress fibers,–,7.3,1.2,1.5,1.1,4.9,3.6,0,0.7,3.8,2.8,0.5,1.8,2.2,0.1,–
O=C(Cc1ccc(Nc2ncc(F)c(Nc3ccc(C(=O)Nc4ccccc4Cl)cc3)n2)cc1)NCCN1CCOCC1 [ERJ2-04],Comparable effects,Comparable effects,"not different from that in cells treated with the compound solvent, DMSO",4.4,0.4,0.4,1.3,4.5,2,0,0.4,3.2,1.9,0.6,1.4,1.8,0.3,–
